Test results reported in ChEMBL document CHEMBL3991601, “The target landscape of clinical kinase drugs” (Science, 2017).
Activity calls are given as the source filed them.

How the values were obtained:
[1] = target: T1, MAP/microtubule affinity-regulating kinase 4 (Homo sapiens, UniProt Q96L34)
T1 sequence (Q96L34 whole entry): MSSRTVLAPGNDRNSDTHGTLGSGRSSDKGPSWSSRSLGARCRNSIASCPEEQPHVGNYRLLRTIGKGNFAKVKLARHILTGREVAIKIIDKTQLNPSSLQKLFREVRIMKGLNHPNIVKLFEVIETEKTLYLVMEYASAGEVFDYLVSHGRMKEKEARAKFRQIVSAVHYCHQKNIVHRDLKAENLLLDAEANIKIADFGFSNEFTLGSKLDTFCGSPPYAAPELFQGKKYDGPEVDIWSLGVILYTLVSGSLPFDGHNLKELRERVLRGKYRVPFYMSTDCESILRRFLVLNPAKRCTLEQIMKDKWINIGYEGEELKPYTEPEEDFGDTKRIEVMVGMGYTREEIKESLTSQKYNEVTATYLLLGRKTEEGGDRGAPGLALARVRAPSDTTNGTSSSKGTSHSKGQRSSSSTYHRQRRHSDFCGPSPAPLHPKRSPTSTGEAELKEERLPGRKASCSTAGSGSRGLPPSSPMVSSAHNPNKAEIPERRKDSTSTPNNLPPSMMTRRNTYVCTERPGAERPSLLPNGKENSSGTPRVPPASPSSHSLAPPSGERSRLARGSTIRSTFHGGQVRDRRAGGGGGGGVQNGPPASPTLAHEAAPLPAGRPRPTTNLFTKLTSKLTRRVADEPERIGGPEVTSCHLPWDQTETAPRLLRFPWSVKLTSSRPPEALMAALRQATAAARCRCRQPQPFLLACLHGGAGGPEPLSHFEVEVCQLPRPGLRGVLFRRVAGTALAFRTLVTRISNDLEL

[2] = target: T2, Dual specificity protein kinase TTK (Homo sapiens, UniProt P33981)
T2 sequence (P33981 whole entry): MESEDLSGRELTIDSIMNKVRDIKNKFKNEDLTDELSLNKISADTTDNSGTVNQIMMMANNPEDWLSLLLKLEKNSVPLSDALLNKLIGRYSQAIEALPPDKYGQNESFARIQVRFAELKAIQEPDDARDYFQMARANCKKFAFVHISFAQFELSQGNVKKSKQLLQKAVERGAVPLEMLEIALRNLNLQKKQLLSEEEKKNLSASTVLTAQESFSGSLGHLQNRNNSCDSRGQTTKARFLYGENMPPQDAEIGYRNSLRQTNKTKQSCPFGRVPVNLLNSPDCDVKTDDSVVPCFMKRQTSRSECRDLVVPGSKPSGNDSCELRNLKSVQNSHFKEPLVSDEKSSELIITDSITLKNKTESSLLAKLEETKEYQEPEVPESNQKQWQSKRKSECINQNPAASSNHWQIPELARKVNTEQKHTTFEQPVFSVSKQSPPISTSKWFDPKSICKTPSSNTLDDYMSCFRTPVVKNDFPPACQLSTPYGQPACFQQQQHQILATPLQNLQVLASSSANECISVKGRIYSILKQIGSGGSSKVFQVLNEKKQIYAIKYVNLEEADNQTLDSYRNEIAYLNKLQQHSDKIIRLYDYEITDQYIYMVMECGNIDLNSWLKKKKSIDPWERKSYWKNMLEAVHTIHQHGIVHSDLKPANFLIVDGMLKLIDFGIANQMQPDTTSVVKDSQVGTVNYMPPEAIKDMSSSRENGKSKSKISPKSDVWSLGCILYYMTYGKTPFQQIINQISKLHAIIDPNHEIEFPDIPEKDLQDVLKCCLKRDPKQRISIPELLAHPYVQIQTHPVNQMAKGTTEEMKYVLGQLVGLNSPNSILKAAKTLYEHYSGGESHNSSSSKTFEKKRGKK

Myosin-10 = Myosin-10 (Homo sapiens, UniProt P35580)
Myosin-10, sequence (P35580 whole entry): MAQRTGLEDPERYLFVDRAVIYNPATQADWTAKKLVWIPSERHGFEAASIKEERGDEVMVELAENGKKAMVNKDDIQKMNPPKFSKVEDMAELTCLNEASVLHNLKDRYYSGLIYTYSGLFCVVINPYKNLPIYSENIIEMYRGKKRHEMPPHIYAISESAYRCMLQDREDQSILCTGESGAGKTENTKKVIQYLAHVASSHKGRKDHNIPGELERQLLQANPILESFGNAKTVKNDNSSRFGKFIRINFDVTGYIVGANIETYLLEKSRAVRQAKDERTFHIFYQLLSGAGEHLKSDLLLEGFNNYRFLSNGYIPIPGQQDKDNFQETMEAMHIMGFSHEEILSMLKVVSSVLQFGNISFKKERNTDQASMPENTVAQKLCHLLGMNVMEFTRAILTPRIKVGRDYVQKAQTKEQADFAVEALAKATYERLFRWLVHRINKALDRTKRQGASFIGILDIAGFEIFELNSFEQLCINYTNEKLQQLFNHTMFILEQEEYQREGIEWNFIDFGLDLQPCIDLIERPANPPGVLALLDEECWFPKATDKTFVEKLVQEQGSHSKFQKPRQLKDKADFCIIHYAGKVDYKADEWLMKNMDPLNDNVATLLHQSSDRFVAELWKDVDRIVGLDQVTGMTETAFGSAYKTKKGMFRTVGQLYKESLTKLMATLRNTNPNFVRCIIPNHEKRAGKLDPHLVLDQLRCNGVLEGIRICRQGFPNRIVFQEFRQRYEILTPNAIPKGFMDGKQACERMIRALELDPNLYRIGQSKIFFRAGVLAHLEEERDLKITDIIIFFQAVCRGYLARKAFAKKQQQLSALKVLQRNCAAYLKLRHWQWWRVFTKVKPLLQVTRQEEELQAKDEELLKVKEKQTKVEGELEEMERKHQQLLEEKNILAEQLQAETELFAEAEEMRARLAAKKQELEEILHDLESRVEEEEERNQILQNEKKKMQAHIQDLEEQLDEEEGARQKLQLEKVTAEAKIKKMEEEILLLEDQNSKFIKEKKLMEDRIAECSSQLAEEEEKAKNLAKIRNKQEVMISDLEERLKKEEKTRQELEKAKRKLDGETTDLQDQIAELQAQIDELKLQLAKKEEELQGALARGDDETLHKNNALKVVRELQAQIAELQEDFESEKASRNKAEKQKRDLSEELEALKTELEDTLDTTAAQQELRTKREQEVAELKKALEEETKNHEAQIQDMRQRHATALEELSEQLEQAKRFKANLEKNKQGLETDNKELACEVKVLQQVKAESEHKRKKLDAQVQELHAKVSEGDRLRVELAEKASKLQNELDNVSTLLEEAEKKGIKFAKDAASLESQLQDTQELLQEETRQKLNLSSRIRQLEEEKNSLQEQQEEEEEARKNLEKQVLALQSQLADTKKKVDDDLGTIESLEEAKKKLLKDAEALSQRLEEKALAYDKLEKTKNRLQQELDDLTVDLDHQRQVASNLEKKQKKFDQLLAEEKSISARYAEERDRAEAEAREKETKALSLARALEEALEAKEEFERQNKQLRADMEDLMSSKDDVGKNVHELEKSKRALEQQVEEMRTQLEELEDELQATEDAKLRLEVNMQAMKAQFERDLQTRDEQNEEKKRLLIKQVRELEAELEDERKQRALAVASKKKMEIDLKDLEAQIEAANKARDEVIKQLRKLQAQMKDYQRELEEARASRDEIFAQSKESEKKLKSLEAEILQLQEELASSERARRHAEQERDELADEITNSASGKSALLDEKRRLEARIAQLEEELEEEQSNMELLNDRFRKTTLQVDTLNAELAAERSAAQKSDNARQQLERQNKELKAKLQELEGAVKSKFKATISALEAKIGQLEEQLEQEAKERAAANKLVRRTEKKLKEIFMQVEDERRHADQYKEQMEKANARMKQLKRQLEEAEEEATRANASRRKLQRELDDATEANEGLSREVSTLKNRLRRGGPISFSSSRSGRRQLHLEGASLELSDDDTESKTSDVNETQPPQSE

[3] = target: Serine/threonine-protein kinase PAK 6 (Homo sapiens, UniProt Q9NQU5)
Serine/threonine-protein kinase PAK 6, sequence (Q9NQU5 whole entry): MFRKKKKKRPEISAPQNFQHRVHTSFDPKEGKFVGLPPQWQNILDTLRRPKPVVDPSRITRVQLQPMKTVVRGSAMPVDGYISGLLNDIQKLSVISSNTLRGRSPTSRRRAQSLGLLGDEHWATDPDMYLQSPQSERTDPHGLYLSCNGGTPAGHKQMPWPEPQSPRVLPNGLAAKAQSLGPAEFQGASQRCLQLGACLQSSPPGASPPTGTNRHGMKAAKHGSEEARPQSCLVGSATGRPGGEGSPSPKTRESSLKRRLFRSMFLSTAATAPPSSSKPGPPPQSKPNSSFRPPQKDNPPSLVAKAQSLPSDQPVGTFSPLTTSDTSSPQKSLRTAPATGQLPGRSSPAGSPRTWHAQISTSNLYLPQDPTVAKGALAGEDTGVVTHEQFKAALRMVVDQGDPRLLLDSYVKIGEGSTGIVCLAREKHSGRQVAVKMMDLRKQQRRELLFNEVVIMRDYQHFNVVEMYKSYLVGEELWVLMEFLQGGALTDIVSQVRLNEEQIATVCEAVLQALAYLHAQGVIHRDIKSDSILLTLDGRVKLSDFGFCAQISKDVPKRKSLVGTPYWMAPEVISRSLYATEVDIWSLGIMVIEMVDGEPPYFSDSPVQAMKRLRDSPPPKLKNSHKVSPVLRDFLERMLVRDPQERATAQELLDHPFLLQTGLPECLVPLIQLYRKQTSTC

[4] = target: Serine/threonine-protein kinase N3 (Homo sapiens, UniProt Q6P5Z2)
Serine/threonine-protein kinase N3, sequence (Q6P5Z2 whole entry): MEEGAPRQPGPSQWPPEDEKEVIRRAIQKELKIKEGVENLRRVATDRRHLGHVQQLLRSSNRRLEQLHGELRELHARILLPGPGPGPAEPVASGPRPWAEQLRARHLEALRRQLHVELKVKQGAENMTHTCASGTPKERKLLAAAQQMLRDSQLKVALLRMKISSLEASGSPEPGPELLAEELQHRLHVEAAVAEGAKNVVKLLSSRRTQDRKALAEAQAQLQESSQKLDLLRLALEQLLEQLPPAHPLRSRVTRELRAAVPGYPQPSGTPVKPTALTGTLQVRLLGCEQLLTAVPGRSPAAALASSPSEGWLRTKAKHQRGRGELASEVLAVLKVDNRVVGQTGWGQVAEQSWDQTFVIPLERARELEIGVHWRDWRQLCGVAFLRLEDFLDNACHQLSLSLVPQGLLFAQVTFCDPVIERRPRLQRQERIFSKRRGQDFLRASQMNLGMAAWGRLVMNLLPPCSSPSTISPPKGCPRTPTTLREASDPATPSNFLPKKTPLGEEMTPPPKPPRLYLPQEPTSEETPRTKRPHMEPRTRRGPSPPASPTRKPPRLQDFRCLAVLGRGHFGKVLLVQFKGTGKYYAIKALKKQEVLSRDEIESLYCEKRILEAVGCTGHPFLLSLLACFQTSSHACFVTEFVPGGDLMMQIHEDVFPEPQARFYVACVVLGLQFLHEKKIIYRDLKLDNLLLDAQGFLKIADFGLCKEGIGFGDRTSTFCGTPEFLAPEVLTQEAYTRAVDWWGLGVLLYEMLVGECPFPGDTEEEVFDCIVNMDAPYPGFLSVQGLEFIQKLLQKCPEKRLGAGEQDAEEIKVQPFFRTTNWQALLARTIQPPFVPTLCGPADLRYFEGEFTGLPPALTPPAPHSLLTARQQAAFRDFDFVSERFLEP

[5] = target: Dual specificity testis-specific protein kinase 2 (Homo sapiens, UniProt Q96S53)
Dual specificity testis-specific protein kinase 2, sequence (Q96S53 whole entry): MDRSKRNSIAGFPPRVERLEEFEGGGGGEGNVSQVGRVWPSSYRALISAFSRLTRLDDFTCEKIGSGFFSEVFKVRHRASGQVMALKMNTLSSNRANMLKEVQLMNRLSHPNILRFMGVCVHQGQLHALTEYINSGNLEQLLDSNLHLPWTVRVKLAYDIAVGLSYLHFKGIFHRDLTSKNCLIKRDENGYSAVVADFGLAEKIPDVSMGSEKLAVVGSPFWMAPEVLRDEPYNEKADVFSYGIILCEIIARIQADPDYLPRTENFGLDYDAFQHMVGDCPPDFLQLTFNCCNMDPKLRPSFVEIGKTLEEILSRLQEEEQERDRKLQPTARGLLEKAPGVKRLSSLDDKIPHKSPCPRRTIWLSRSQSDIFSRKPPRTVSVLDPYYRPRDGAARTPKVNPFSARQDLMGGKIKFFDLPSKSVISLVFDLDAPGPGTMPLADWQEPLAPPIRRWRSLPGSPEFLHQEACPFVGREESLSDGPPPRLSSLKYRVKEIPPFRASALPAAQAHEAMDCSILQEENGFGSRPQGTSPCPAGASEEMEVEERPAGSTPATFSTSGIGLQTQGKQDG

Measured: Kd
Further: in the data inactive means no Kd found up to 30 µM.

CCc1nc(C(N)=O)c(Nc2ccc(N3CCC(N4CCN(C)CC4)CC3)c(OC)c2)nc1NC1CCOCC1 [GILTERITINIB]
inactive: [1] > 30 µM | [2] > 30 µM

Cc1ccc(C(=O)Nc2ccc(Oc3cc4cnn(C)c4cc3-c3cn[nH]c3)c(F)c2)c(=O)n1-c1ccc(F)cc1 [MERESTINIB]
inactive: [1] > 30 µM | Myosin-10 > 30 µM | [3] > 30 µM | [4] > 30 µM | [2] > 30 µM

CCOc1ccn(-c2ccc(F)cc2)c(=O)c1C(=O)Nc1ccc(Oc2ccnc(N)c2Cl)c(F)c1 [BMS-777607]
inactive: [1] > 30 µM | Myosin-10 > 30 µM

FC(F)(F)c1ccc(CNc2ccc(Cc3c[nH]c4ncc(Cl)cc34)cn2)cn1 [PEXIDARTINIB]
inactive: [1] > 30 µM | Myosin-10 > 30 µM | [2] > 30 µM

CNC(=O)c1cc(COc2nnc(Nc3ccc(Cl)cc3)c3ccoc23)ccn1 [TELATINIB]
inactive: [1] > 30 µM | [3] > 30 µM | [4] > 30 µM | [5] > 30 µM | [2] > 30 µM

COc1cc2ncnc3c2cc1OCCCCCN(C)Cc1ccc(Br)cc1N3 [JNJ-26483327]
inactive: [1] > 30 µM | [5] > 30 µM

COc1cc2c(N3CCN(C(=O)Nc4ccc(OC(C)C)cc4)CC3)ncnc2cc1OCCCN1CCCCC1 [TANDUTINIB]
inactive: Myosin-10 > 30 µM | [4] > 30 µM | [5] > 30 µM

O=S(=O)(c1cccc2cnccc12)N1CCCNCC1 [FASUDIL]
inactive: [1] > 30 µM | Myosin-10 > 30 µM | [5] > 30 µM | [2] > 30 µM

COc1ccc(-c2ccc3ncc4c(c3c2)n(-c2ccc(N3CCNCC3)c(C(F)(F)F)c2)c(=O)n4C)cn1 [BGT-226 FREE BASE]
inactive: [1] > 30 µM | Myosin-10 > 30 µM | [3] > 30 µM | [5] > 30 µM | [2] > 30 µM

CNC(=O)c1ccc(Nc2ncc(C(F)(F)F)c(NCc3nccnc3N(C)S(C)(=O)=O)n2)cc1 [DEFACTINIB]
inactive: [1] > 30 µM | [3] > 30 µM | [4] > 30 µM | [5] > 30 µM | [2] > 30 µM

Cc1cc(C(=O)Nc2cc(Oc3ccc4nc(NC(=O)C5CC5)cn4n3)ccc2C)n(C)n1 [TAK-593]
inactive: [1] > 30 µM | [5] > 30 µM

O=C(O)c1ccc2c(c1)nc(Nc1cccc(Cl)c1)c1ccncc12 [SILMITASERTIB]
inactive: [4] > 30 µM | [5] > 30 µM | [2] > 30 µM

CCN(CCCOc1ccc2c(Nc3cc(CC(=O)Nc4cccc(F)c4)n[nH]3)ncnc2c1)CCOP(=O)(O)O [BARASERTIB]
inactive: [3] > 30 µM | [5] > 30 µM

N#CCNC(=O)c1ccc(-c2ccnc(Nc3ccc(N4CCOCC4)cc3)n2)cc1 [MOMELOTINIB]
inactive: [2] > 30 µM

c1cc(OCCN2CCCCC2)cc(-c2n[nH]c3ccc(-c4nc[nH]n4)cc23)c1 [CC-401]
inactive: [1] > 30 µM | [3] > 30 µM | [4] > 30 µM | [5] > 30 µM | [2] > 30 µM

C=CC(=O)Nc1cccc(Nc2nc(Nc3ccc(N4CCN(C(C)=O)CC4)cc3OC)ncc2C(F)(F)F)c1 [ROCILETINIB]
inactive: Myosin-10 > 30 µM

O=c1[nH]c([C@@H]2CCCN2)nc2c1oc1ccc(Cl)cc12
inactive: [1] > 30 µM

S=C(NCc1ccc2c(c1)OCO2)N1CCN(c2ncnc3c2oc2ccccc23)CC1 [AMUVATINIB]
inactive: [1] > 30 µM | Myosin-10 > 30 µM | [4] > 30 µM

C=CC(=O)Nc1cc(Nc2nccc(-c3cn(C)c4ccccc34)n2)c(OC)cc1N(C)CCN(C)C [OSIMERTINIB]
inactive: [1] > 30 µM | Myosin-10 > 30 µM | [4] > 30 µM | [5] > 30 µM

CC(C)(O)CC(=O)NCCn1ccc2ncnc(Nc3ccc(Oc4cccc(C(F)(F)F)c4)c(Cl)c3)c21 [TAK-285]
inactive: [1] > 30 µM | [4] > 30 µM

C[C@@H]1COC(Nc2ccc3ncnc(Nc4ccc(OCc5nccs5)c(Cl)c4)c3c2)=N1 [VARLITINIB]
inactive: [1] > 30 µM | [3] > 30 µM | [4] > 30 µM | [5] > 30 µM | [2] > 30 µM

C=CCN(/C=C1/C(=O)O[C@H](COC)[C@@]2(C)C1=C(O)C(=O)C1=C2[C@H](OC(C)=O)C[C@]2(C)C(=O)CC[C@@H]12)CC=C [SONOLISIB]
inactive: Myosin-10 > 30 µM | [3] > 30 µM

Cc1c(NC(=O)OC[C@@H]2COCCN2)cn2ncnc(Nc3ccc4c(cnn4Cc4cccc(F)c4)c3)c12 [AC-480]
inactive: [1] > 30 µM | Myosin-10 > 30 µM | [3] > 30 µM | [2] > 30 µM

CN1CCN(c2nc(C3=C(c4c[nH]c5ccccc45)C(=O)NC3=O)c3ccccc3n2)CC1 [SOTRASTAURIN]
inactive: [1] > 30 µM | [3] > 30 µM | [4] > 30 µM | [2] > 30 µM

CC(C)CC(=O)Nc1[nH]nc2c1CN(C(=O)C1CCN(C)CC1)C2(C)C [PHA-793887]
inactive: [1] > 30 µM | Myosin-10 > 30 µM

COc1ccc2c(OCc3nnc4ccc(-c5ccccc5)nn34)ccnc2c1 [AMG-208]
inactive: [1] > 30 µM | Myosin-10 > 30 µM | [4] > 30 µM | [5] > 30 µM

CN(c1ncccc1CNc1nc(Nc2ccc3c(c2)CC(=O)N3)ncc1C(F)(F)F)S(C)(=O)=O [PF-00562271]
inactive: Myosin-10 > 30 µM | [3] > 30 µM | [4] > 30 µM

COc1cc2ncnc(Nc3ccc(F)c(Cl)c3)c2cc1NC(=O)/C=C/CN1CCCCC1 [DACOMITINIB ANHYDROUS]
inactive: [1] > 30 µM | [5] > 30 µM

CC[C@@](C)(Nc1ccnc(-c2c[nH]c3ncccc23)n1)C(=O)NCC(F)(F)F [DECERNOTINIB]
inactive: Myosin-10 > 30 µM

O=C(NOC[C@H](O)CO)c1ccc(F)c(F)c1Nc1ccc(I)cc1F [MIRDAMETINIB]
inactive: [1] > 30 µM | Myosin-10 > 30 µM | [3] > 30 µM | [4] > 30 µM | [2] > 30 µM

NC[C@@](O)(c1ccc(Cl)cc1)c1ccc(-c2cn[nH]c2)cc1 [AT-13148]
inactive: Myosin-10 > 30 µM
